Laboratory results taken from patent US6632946B2, “Tetracyclic analogues of camptothecins, their preparation processes, their use as medicaments and the pharmaceutical compositions containing them” (Societe de Conseils de Recherches et d'Applications …, priority 1997, dated 2003).
Read-outs that look alike come from different tables or passages of the source.

Experiments:
[1] = target: T1, calf thymus topoisomerase I (Bos taurus, UniProt F1MN93); conditions: for PERCENTAGE OF RELAXED DNA: relaxed DNA with respect to total DNA, pUC 19, 37° C. 15 min
T1 sequence (F1MN93 1-767): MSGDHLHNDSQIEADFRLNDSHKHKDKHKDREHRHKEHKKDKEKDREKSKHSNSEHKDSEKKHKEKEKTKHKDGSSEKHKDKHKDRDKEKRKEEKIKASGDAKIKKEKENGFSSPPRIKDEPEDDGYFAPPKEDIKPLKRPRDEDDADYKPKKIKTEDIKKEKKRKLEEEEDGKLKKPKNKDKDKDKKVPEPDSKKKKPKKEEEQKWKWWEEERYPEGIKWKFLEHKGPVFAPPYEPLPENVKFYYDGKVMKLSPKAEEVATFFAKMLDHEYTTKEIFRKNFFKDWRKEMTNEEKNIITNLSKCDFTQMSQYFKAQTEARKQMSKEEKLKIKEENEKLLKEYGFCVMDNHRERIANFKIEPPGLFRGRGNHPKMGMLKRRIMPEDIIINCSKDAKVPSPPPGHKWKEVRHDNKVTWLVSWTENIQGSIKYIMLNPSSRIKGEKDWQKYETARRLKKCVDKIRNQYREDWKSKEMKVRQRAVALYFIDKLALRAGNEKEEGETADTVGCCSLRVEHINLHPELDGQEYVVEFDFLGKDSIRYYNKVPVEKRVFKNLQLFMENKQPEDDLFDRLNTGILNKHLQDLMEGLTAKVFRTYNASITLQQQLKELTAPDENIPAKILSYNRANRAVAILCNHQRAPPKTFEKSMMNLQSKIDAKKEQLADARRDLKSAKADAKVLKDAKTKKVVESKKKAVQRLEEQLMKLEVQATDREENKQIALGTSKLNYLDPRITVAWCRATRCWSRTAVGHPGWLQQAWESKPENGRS
Description: 1. Inhibition test of the relaxation of supercoiled DNA induced by topoisomerase I.
Supercoiled plasmidic DNA (pUC 19, Pharmacia Biotech, Orsay, France, 300 ng) is incubated at 37° C. for 15 min in the presence of calf thymus topoisomerase I (Gibco-BRL, Paisley, United Kingdom, 1 unit) in 20 μl of reaction buffer (Tris-HCl pH 7.5:50 mM, KCl: 50 mM, DTT: 0.5 mM, MgCl2: 10 mM, EDTA: 0.1 mM, bovine serum albumin: 0.030 mg/ml) and of a potentiel inhibitor (prepared in a 50 mM extemporaneous solution in dimethylsulphoxide, then diluted with distilled water in order to obtain a final concentration of 500 μM, 200 μM, 100 μM or 10 μM, not exceeding 1% of dimethylsulphoxide). The reaction is stopped by the addition of 3 μl of a denaturing solution (proteinase K: 500 μg/ml, sodium dodecylsulphate: 1%, EDTA: 20 mM) followed by incubation at 37° C. for 30 min, then 2 μl of a loading buffer (bromophenol blue: 0.3%, sodium hydrogen phosphate: 10 mM, polysucrose Ficoll®-400: 16%) are added and the sample is placed on a 1.2% agarose gel (Sea-Kem-GTG, FMC Bioproducts/Tebu, Perray-en-Yvelines, France) containing 2 μg/ml of chloroquine. The electrophoretic migration is carried out at a voltage of 1V/cm for 20 hours, with recirculation of the electrophoresis buffer (Tris-HCl: 36 mM, sodium dihydrogen phosphate: 30 mM, EDTA: 1 mM). The gel is then stained under agitation with 2 μg/ml ethidium bromide, then photographed under ultraviolet light at 312 nm (CCD camera Vilber-Lourmat, Lyon, France). Densitometric analysis (BioProfil image analyzer Vilber-Lourmat, Lyon, France) allows the percentage of relaxed DNA with respect to total DNA to be expressed, at the chosen concentration of inhibitor.

topoisomerase II = conditions: for PERCENTAGE OF RELAXED DNA: relaxed DNA with respect to total DNA, pUC 19, 37° C. 15 min
Description: 2. Inhibition test of the relaxation of supercoiled DNA induced by topoisomerase II.
Supercoiled plasmidic DNA (pUC 19, Pharmacia Biotech, Orsay, France, 300 ng) is incubated at 37° C. for 15 min in the presence of calf thymus […] (Gibco-BRL, Paisley, United Kingdom, 7 units) in 20 μl of reaction buffer (Tris-HCl pH 7.9: 10 mM, KCl: 50 mM, NaCl: 50 mM, MgCl2: 5 mM, ATP: 1 mM, EDTA: […], bovine serum albumin: 15 mg/ml) and of a potential inhibitor (prepared in a 50 mM extemporaneous solution in dimethylsulphoxide, then diluted with distilled water in order to obtain a final concentration of 500 μM, 200 μM, 100 μM or 10 μM, not exceeding 1% of dimethylsulphoxide). The reaction is stopped by the addition of 3 μl of a denaturing solution (proteinase K: 500 μg/ml, sodium dodecylsulphate: 1%, EDTA: 20 mM) followed by incubation at 37° C. for 30 min, then 2 μl of a loading buffer (bromophenol blue: 0.3%, sodium hydrogen phosphate: 10 mM, polysucrose Ficoll®-400: 16%) are added and the sample is placed on a 1.2% agarose gel (Sea-Kem-GTG, FMC Bioproducts/Tebu, Perray-en-Yvelines, France) containing 2 μg/ml of chloroquine. The electrophoretic migration is carried out at a voltage of 1V/cm for 20 hours, with recirculation of the electophoresis buffer (Tris-HCl: 36 mM, sodium dihydrogen phosphate: 30 mM, EDTA: 1 mM). The gel is then stained under agitation with 2 μg/ml ethidium bromide, then photographed under ultraviolet light at 312 nm (CCD camera Vilber-Lourmat, Lyon, France). Densitometric analysis (BioProfil image analyzer Vilber-Lourmat, Lyon, France) allows the percentage of relaxed DNA with respect to the total DNA to be expressed, at the chosen concentration of inhibitor.

[2] = at concentrations greater than 10 μM

SMILES | PERCENTAGE OF RELAXED DNA ([1]; inhibitor concentration 10 μM) [%] | PERCENTAGE OF RELAXED DNA ([1]; inhibitor concentration 100 μM) [%] | PERCENTAGE OF RELAXED DNA ([1]; inhibitor concentration 200 μM) [%] | PERCENTAGE OF RELAXED DNA ([1]; inhibitor concentration 500 μM) [%] | PERCENTAGE OF RELAXED DNA (topoisomerase II; inhibitor concentration 10 μM) [%] | PERCENTAGE OF RELAXED DNA (topoisomerase II; inhibitor concentration 100 μM) [%] | PERCENTAGE OF RELAXED DNA (topoisomerase II; inhibitor concentration 200 μM) [%] | PERCENTAGE OF RELAXED DNA (topoisomerase II; inhibitor concentration 500 μM) [%] | inhibition of topoisomerase I compared with camptothecin [1, 2] | inhibition of topoisomerase II compared with etoposide (topoisomerase II; [2])
CC[C@@]1(O)C(=O)OCc2c1cc1n(c2=O)Cc2cc3ccccc3nc2-1 [Camptothecin] | 95.5 ± 1.4 | 64.2 ± 6.1 | 60.6 ± 12.0 | 55.6 ± 8.8 | – | – | – | – | – | –
COc1cc([C@@H]2c3cc4c(cc3[C@@H](O[C@@H]3O[C@@H]5CO[C@@H](C)O[C@H]5[C@H](O)[C@H]3O)[C@H]3COC(=O)[C@H]23)OCO4)cc(OC)c1O [Etoposide, reference compound] | – | – | – | – | 92.6 ± 2.5 | 28.5 ± 2.2 | 18.6 ± 1.4 | 12.0 ± 0.8 | – | –
CCC(O)(CC(=O)O)c1cc2n(c(=O)c1)Cc1cc3ccccc3nc1-2 (stereo not drawn) [Example 6, 3-Hydroxy-3-(4-oxo-4,6-dihydroindolizino[1,2-b]quinoline-2-yl)pentanoic Acid] | 95.2 ± 2.8 | 28.5 ± 3.5 | 15.5 ± 3.6 | 10.3 ± 2.8 | 98.8 ± 0.4 | 9.9 ± 0.7 | 11.5 ± 1.9 | 6.5 ± 1.0 | better inhibitor of topoisomerase I than camptothecin | better inhibitor of topoisomerase II than etoposide
